Our source for the IC50 values is US20230096517A1, “GLUTARIMIDE SKELETON-BASED COMPOUNDS AND APPLICATION THEREOF” (SHANGHAITECH UNIVERSITY, priority 2020, published 2023).

Structures are written as SMILES.

For this test, the system named is MM.1S cells. The test is described as follows: Proliferation inhibition (IC50) in multiple myeloma cells, cell viability with WST/CCK-8 reagent.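 Note: MM.1S B-lymphoblast cells at 15,000 per well in 100 µL serum-containing RPMI1640, experiment run more than three times.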 Conditions: Homo sapiens, MM1.S, 72 h, read-out: IC50 (half inhibitory concentration). Background: Formazan colour is commonly taken as a measure of viable cells.
Experimental: Multiple myeloma cell line: MM.1S (B lymphoblast), purchased from ATCC (American Type Culture Collection). Culture medium was RPMI1640 supplemented with 10% FBS and 1% Penicillin-Streptomycin. The cells used were identified as correct cells by STR cells and negative for mycoplasma by routine inspections.
IC50 values of the compounds of the present disclosure were measured using Cell Titer Blue, Cell Titer GLO, or WST reagent from Promega Company. Assay details are as follows: Cells were seeded in 100 μL RPMI1640 complete medium containing serum at a density of 15,000 cells/well.
The experiment was repeated more than three times.
As for `O=C1CCC(N2C(=O)c3cccc(NCCCCCCCNC45CC6CC(CC4C6)C5)c3C2=O)C(=O)N1` (stereo not shown) [SIAIS1242041, 2-(2,6-dioxopiperidin-3-yl)-4-((7-((hexahydro-2,5-methanopentalen-3a(1H)-yl)amino)heptyl)amino)isoindoline-1,3-dione], the IC50 was 0.076 nM.

For the compound `O=C1CCC(N2Cc3c(OCCCCCCCNC45CC6CC(CC4C6)C5)cccc3C2=O)C(=O)N1` (stereo not shown) [SIAIS1242043, 3-(4-((7-((hexahydro-2,5-methanopentalen-3a(1H)-yl)amino)heptyl)oxy)-1-oxoisoindolin-2-yl)piperidine-2,6-dione], the IC50 came out at 0.069 nM.

In the case of `O=C1CCC(N2Cc3c(C#CCCCCCCNC45CC6CC(CC4C6)C5)cccc3C2=O)C(=O)N1` (stereo not shown) [SIAIS1242057, 3-(4-(8-((hexahydro-2,5-methanopentalen-3a(1H)-yl)amino)oct-1-yn-1-yl)-1-oxoisoindolin-2-yl)piperidine-2,6-dione], the IC50 was determined as 0.267 nM.

As to `O=C1CCC(N2Cc3c(NCc4ccc(CCNC56CC7CC(CC5C7)C6)cc4)cccc3C2=O)C(=O)N1` (stereo not shown) [SIAIS1242061, 3-(4-((4-(2-((hexahydro-2,5-methanopentalen-3a(1H)-yl)amino)ethyl)benzyl)amino)-1-oxoisoindolin-2-yl)piperidine-2,6-dione], the IC50 was found to be 0.107 nM.

Take `O=C1CCC(N2C(=O)c3ccc(NCCCCCCNC45CC6CC(CC(C6)C4)C5)cc3C2=O)C(=O)N1` (stereo not shown) [SIAIS1242067, 5-((6-((adamantan-1-yl)amino)hexyl)amino)-2-(2,6-dioxopiperidin-3-yl)isoindoline-1,3-dione]: the IC50 was 17.7 nM.

With `O=C1CCC(N2C(=O)c3ccc(NCCCCCNC45CC6CC(CC(C6)C4)C5)cc3C2=O)C(=O)N1` (stereo not shown) [SIAIS1242069, 5-((5-((adamantan-1-yl)amino)pentyl)amino)-2-(2,6-dioxopiperidin-3-yl)isoindoline-1,3-dione], the IC50 was found to be 2.27 nM.

As for `O=C1CCC(N2Cc3c(NCCCCCCCNC45CC6CC(CC4C6)C5)cccc3C2=O)C(=O)N1` (stereo not shown) [SIAIS1242071, 3-(4-((7-((hexahydro-2,5-methanopentalen-3a(1H)-yl)amino)heptyl)amino)-1-oxoisoindolin-2-yl)piperidine-2,6-dione], the IC50 came to 2.46 nM.

Take `O=C1CCC(N2Cc3c(OCCCCCCC(=O)NC45CC6CC(CC(C6)C4)C5)cccc3C2=O)C(=O)N1` (stereo not shown) [SIAIS1242075, N-(adamantan-1-yl)-7-((2-(2,6-dioxopiperidin-3-yl)-1-oxoisoindolin-4-yl)oxy)heptanamide]: the IC50 is 0.877 nM.

In the case of `O=C1CCC(N2C(=O)c3cccc(NCCCCCCC(=O)NC45CC6CC(CC(C6)C4)C5)c3C2=O)C(=O)N1` (stereo not shown) [SIAIS1242077, N-(adamantan-1-yl)-7-((2-(2,6-dioxopiperidin-3-yl)-1,3-dioxoisoindolin-4-yl)amino)heptanamide], the IC50 worked out at 0.241 nM.

For `Nc1cccc2c1C(=O)N(C1CCC(=O)NC1=O)C2=O` (stereo not shown) [pomalidomide, reference compound], the IC50 worked out at 9.4 ± 1.3 nM.
